Experimental data published in US20080051454A1, “Compositions and methods for transient receptor potential vanilloid (TRPV) channel mediated treatments” (The Board of Trustees Operating Michigan State University, priority 2006, published 2008).
“And” between values parts separate entries of the source, which are not always exact repeats. Equal values may be shown once.

Columns and labels:
[1] = test system: male Wistar rats; assay: Depressor effect of 20-HETE analog DSR given IV, with or without antagonists; assay type: in vivo, rat
[2] = test system: male Wistar rats; assay: Plasma CGRP and substance P after i.v. DSR (radioimmunoassay); assay type: in vivo, rat; conditions: after DSR 1 mg/kg iv
[3] = test system: Wistar rats fed a NS or HS diet for 3 weeks; assay: Plasma CGRP levels after MethA injection (radioimmunoassay); assay type: in vivo, rat; conditions: MethA 5 mg/kg
From the text: Fifteen minutes after injection, when the prolonged depressor phase approached to the lowest point, the rats were decapitated for collection of blood for plasma CGRP assay.
(§1) This antibody has 100% cross-reactivity with rat α-CGRP and 79% with rat β-CGRP. There is no cross-reactivity with rat amylin, calcitonin, somatostatin, or substance P.

[4] = test system: mesenteric arteries; assay: MethA-induced CGRP release from isolated mesenteric arteries (radioimmunoassay); parameters: species or system rat; conditions: arteries of NS-treated rats
Method: The arteries were dissected free of fat and connective tissues.
The preparations were incubated in a Krebs' solution of the following compositions (in mM): NaCl 119, NaHCO3 25, KH2PO4 1.2, MgSO4 1.5, CaCl2 2.5, KCl 4.7, and D-glucose 11. The Krebs' solution was maintained at 37 °C and gassed with 95% O2 and 5% CO2. After 1 h stabilization period, the arteries were transferred to another chamber containing 1 ml of Krebs' solution with the addition of 0.05% BSA and drugs. […] The tissues were removed after 20 min incubation, and the solutions were collected. At the end of the experiment, the tissues were blotted and weighted.
as §1

[5] = test system: mesenteric arteries; assay: NADA-induced CGRP release from isolated mesenteric arteries (radioimmunoassay); parameters: species or system rat
Method: After an 1 h stabilization period, the arteries were transferred to another chamber containing 1 ml of Krebs's solution with the addition of 0.05% BSA and drugs including NADA (1 or 10 μM) or CAPZ (10 μM). The tissues were removed after 20 min incubation, and the solutions were collected and evaporated. […] At the end of the experiment, the tissues were blotted and weighted. […] The results are expressed as pg of milligram of tissues.
(§2) This antibody has 100% cross-reactivity with rat a-CGRP and 79% with β-CGRP. There is no cross-reactivity with rat amylin, calcitonin, somatostatin, or substance P. The assay was performed following the manufacturer's protocol.

[6] = test system: Wistar rats fed a NS or HS diet for 10 days; assay: Plasma CGRP levels after NADA injection (radioimmunoassay); assay type: in vivo, rat; conditions: NADA 4 mg/kg
Method: Eight minutes after injection, when the depressor phase approached to the lowest point, the rats were sacrificed for collection of blood for plasma CGRP assay.
as §2

[7] = test system: Wistar rats fed a normal-salt (NS) or high-salt (HS) diet for 10 days; assay: MAP and HR responses to i.v. bolus NADA with or without antagonists in conscious rats; assay type: in vivo, rat; conditions: for decrease in mean arterial pressure (depressor effect): NADA iv (1, 4, 10 mg/kg; dose of this value not stated); for prolonged depressor effect of NADA (decrease in MAP) after antagonist: NADA 4 mg/kg after CAPZ 3 mg/kg, CGRP8-37 infusion or SR141716A 3 mg/kg
From the text: In brief: Wistar rats were fed a normal (NS, 0.4%) or high (HS, 4%) sodium diet for 10 days, then artery and vein were cannulated for measurement of mean arterial pressure (MAP) or for injection of drugs and collection of plasma.
Animal Preparation: Male Wistar rats (7 weeks old, Charles River Laboratory, Wilmington, Mass.) were housed in the animal facility for 1 week before the experiment. Rats were grouped randomly and pair-fed a NS (0.4% of Na^+ by weight) or HS (4% of Na^+ by weight) diet for 10 days. The rat chow was purchased from Harlan Teklad Diets (Madison, Wis.). Drinking water was available ad libitum throughout the experiment. All protocols were in accordance with the National Institutes of Health Guidelines for the Care and Use of Laboratory Animals.
Surgical Preparation Rats were anesthetized with ketamine and xylazine (80 and 4 mg/kg intraperitoneally, respectively) for cannulation or with urethane (1.5 g/kg intraperitoneally) for capsaicin administration. The left jugular vein, carotid and femoral artery were cannulated under anesthesia for injection of drugs or monitoring of mean arterial pressure (MAP) and heart rate (HR).
Three hours after surgery, baseline MAP and its response to the above-mentioned drugs were obtained with the rats fully awake and unrestrained [Wang et al., Am J Physiol 2004; 287:H1868-H[874]. NADA was injected in increasing doses (1, 4, and 10 mg/kg intravenous bolus) in 3 subgroups of rats (each group for each dose). To determine the role of TRPV1 and CB 1 receptor in NADA-induced hypotension, NADA (4 mg/kg) was injected 10 minutes or 20 minutes after intravenous injection of CAPZ (3 mg/kg) or SR141716A (3 mg/kg), respectively.
To examine the effect of CGRP8-37 on NADA-induced hypotension, CGRP8-37 was intravenously administered at the rate of 1 mg/kg/min for 2 minutes followed by injection at the rate of 0.5 mg/kg/min for 15 minutes. NADA (4 mg/kg) was injected 1 minute after CGRPs-37 administration. The effectiveness of the dose and time frame for CGRP8-37 injection was verified by blockade of the hypotensive response to capsaicin (30 μg/kg) (n=5).

[8] = test system: Wistar rats fed HS diet; assay: Blood pressure after i.v. SR141716A or CAPZ in conscious rats fed HS diet (Example I); assay type: in vivo, rat; conditions: 3 mg/kg iv
Method: Experiments were approved by the Institutional Animals Care and Use Committee. Experiments were performed using male Wistar rats (Charles River Laboratory, Wilmington, Mass.). Rats (6 weeks old) were housed in the animal facility for 1 week before the experiments. Rats were then randomly assigned to a normal-sodium (NS) diet (0.4% of Na+ by weight, Harlan Teklad) or HS (4% of Na+ by weight; Harlan Teklad) for 3 weeks. Rats drank water ad libitum throughout the experiment.
Surgical Preparation and MAP measurements: The rats were anesthetized with ketamine and xylazine (80 and 4 mg/kg intraperitoneally, respectively) for implantation of vascular catheters or with urethane ([…] intraperitoneally) throughout protocol 2. […]
Protocol 1: Rats fed a NS or HS diet were randomly assigned to 5 groups for intravenous injection of vehicle or MethA alone or in combination with SR141716A (a CB1 receptor antagonist), CAPZ (a VR1 receptor antagonist), or the combination of the 2 (n=5 to 8). Baseline MAP and its response to the aforementioned drugs were determined 3 hours after surgery when animals were fully awake and unrestrained as described previously. […]

O=C(O)CCC/C=C\CCCCCCC/C=C\CCCCO [DSR]
decrease in mean arterial pressure ([1]; DSR 1 mg/kg IV alone): 22.1±2.3 mmHg | depressor effect among the analogs tested in vivo ([1]; rat, in vivo): most potent | plasma CGRP levels [2]: 273.4 ± 23.6 pg/mL | plasma SP levels [2]: 14.5 ± 1.6 pg/mL

CCCCC/C=C\C/C=C\C/C=C\C/C=C\CCCC(=O)N[C@H](C)CO [MethA, methanandamide]
plasma CGRP levels ([3]; HS): 78.1 ± 8.5 pg/mL | plasma CGRP levels ([3]; NS): 50.4 ± 5.9 pg/mL | CGRP release ([4]; MethA 0.1 μM): 4.81±0.75 pg/mg tissue | CGRP release ([4]; MethA 10 μM): 14.89±2.36 pg/mg tissue

CCCCC/C=C\C/C=C\C/C=C\C/C=C\CCCC(=O)NCCc1ccc(O)c(O)c1 [NADA, N-arachidonoyl dopamine]
CGRP release ([5]; NADA 1 μM, arteries of HS-treated rats): 9.16±0.68 pg/mg tissue | CGRP release ([5]; NADA 1 μM, arteries of NS-treated rats): 6.43±0.58 pg/mg tissue | CGRP release ([5]; NADA 10 μM, arteries of HS-treated rats): 19.00±1.56 pg/mg tissue | CGRP release ([5]; NADA 10 μM, arteries of NS-treated rats): 13.07±0.91 pg/mg tissue | plasma CGRP levels ([6]; HS): 84.2 ± 7.2 pg/mL and 87.7 ± 5.6 pg/mL | plasma CGRP levels ([6]; NS): 55.3 ± 4.6 pg/mL and 60.6 ± 5.1 pg/mL | peak decrease in MAP ([7]; NADA 1 mg/kg iv, HS diet): 6±2 mmHg | peak decrease in MAP ([7]; NADA 1 mg/kg iv, NS diet): 7±3 mmHg | peak decrease in MAP ([7]; NADA 4 mg/kg iv, HS diet): 22±3 mmHg | peak decrease in MAP ([7]; NADA 4 mg/kg iv, NS diet): 14±2 mmHg | peak decrease in MAP ([7]; NADA 10 mg/kg iv, HS diet): 33±5 mmHg | peak decrease in MAP ([7]; NADA 10 mg/kg iv, NS diet): 24±4 mmHg | decrease in mean arterial pressure (depressor effect) ([7]; HS diet): 16±3 mmHg | decrease in mean arterial pressure (depressor effect) ([7]; NS diet): 8±2 mmHg | HR during depressor effect ([7]; after NADA iv): pronounced increase | duration of prolonged depressor activity ([7]; after NADA iv): approximately 20 minutes | time of peak of prolonged depressor activity after administration ([7]; after NADA iv): 7 to 9 min

Cc1c(C(=O)NN2CCCCC2)nn(-c2ccc(Cl)cc2Cl)c1-c1ccc(Cl)cc1 [SR141716A]
duration of transient elevation in blood pressure after injection [8]: no more than 15 minutes | prolonged depressor effect of NADA (decrease in MAP) after antagonist ([7]; HS diet): 19±4 mmHg | prolonged depressor effect of NADA (decrease in MAP) after antagonist ([7]; NS diet): 12±3 mmHg | effect on initial transient hypotensive and brief pressor phases of NADA ([7]; NADA 4 mg/kg, NS and HS): did not affect
